# pEC50: −log10 of the molar value. Entries after “also recorded” stand apart in the source; their conditions may differ. Structures can show the parent of a compound that is named as a salt. Where two headings read alike, the source gives them in different places.
# What was measured:
# [1] = tested on: basolateral Cl^− entry into colonic crypt cells via NKCCl; assay: Cell Cl^− influx measurements (MQAE fluorescence) in colonic crypts; format: cell-based, rat
# Procedure: Cl^− Measurements. Cell Cl^− influx measurements (Egan, M. E. et al. Nat. […] Molecular Probes]. After dye loading, crypts were incubated in a Cl^− free HEPES buffer until stable high baseline fluorescence intensity was achieved. Rates of cell Cl^− influx were monitored as rates of reductions in arbitrary MQAE fluorescent units (ΔAFU/min; Ex: 346 nm; EM: 460 nm).
# rat colonic crypts = assay: Absorptive fluid movement (netJv with secretion inhibited) in perfused rat colonic crypts; format: cell-based
# [2] = tested on: colonic crypts from Casr^+/+:Gcm2^+/+ mice; assay: Net Jv in perfused colonic crypts from wild type mice; format: cell-based; conditions: for Effect on net fluid secretion induced by Guanylin and CTX: Casr^+/+:Gcm2^+/+
# [3] = tested on: apical NHE (Na^+/H^+ exchanger); assay: NHE activity: Na^+-dependent proton extrusion from colonocytes; format: cell-based, rat; conditions: forskolin present
# Description: Cyclic nucleotide-dependent fluid loss in secretory […] occurs through reduction in absorptive, and increases in secretory, processes. Lucas, M. L. J. Appl. Microbiol. 90, 7-26, 2001; Golin-Bisello, F. et al. Am. J. Cell. Physiol. 289, […]-[…], 2005. Colonic epithelial crypts provide a model for understanding intestinal fluid transport as they simultaneously absorb and secrete fluid with the direction of net fluid movement (^netJv) depending on the relative magnitudes of these two processes. A major component of fluid absorption in the colon is mediated by parallel Na^+/H^+ (sodium-hydrogen exchanger, NHE) and Cl^-/HCO3^- exchange located at the apical plasma membranes. Kunzelman, K. et al. Physiol. Rev. 82, 245-289, 2002; Donowith, M. et al. Annu. Rev. Physiol. 48, 135-150, 1986. Cyclic nucleotides reduce this Na^+-dependent fluid absorption by inhibiting NHE activity. […] This basal fluid was likely due to the low levels of cell cyclic nucleotides that remain even in the absence of secretagogues. […] To examine if this latter effect of CaSR agonists on fluid absorption resulted from enhanced apical NHE activity, the effects of Ca^2+ on Na^+-dependent proton extrusion from colonocytes were assessed in the presence of forskolin. […] Cell acid loading was accomplished by exposure to NH4Cl and Na^+-dependent cell pH recovery following removal of NH4Cl was assessed as an index of Na^+/H^+ activity. […]
# [4] = tested on: isolated rat colonic crypts; assay: Net fluid movement (Jv) in in vitro perfused rat colonic crypts; format: cell-based; conditions: for pEC50: Rattus norvegicus, read-out: EC50, attenuation of forskolin-induced net fluid secretion, forskolin 10 μM, 0.1 mM Ca^2+; for Effect on net fluid secretion in presence of forskolin and PLC inhibitor U73122: U73122 10 μM, 0.1 mM calcium
# [5] = tested on: colonic crypts from Casr^−/−:Gcm2^−/− mice; assay: Net Jv in perfused colonic crypts from CaSR null mice; format: cell-based; conditions: for Effect on net fluid secretion induced by Guanylin and CTX: Casr^−/−:Gcm2^−/−
# cyclic AMP = assay: Secretagogue-stimulated cyclic AMP accumulation in colonic crypt cell suspensions; format: cell-based
# cyclic GMP = assay: Secretagogue-stimulated cyclic GMP accumulation in colonic crypt cell suspensions; format: cell-based; conditions: IBMX 1 mM
# [6] = tested on: proximal and distal colon crypts; format: cell-based, Sprague-Dawley rats
# BALB/c mice [7] = conditions: mouse, in vivo
# BALB/c mice [8] = conditions: mouse, in vivo; remark: listed apart in the source
# [9] = tested on: proximal or distal colon segments; format: cell-based, Sprague-Dawley rats
# [10] = extracellular calcium raised from 0.1 mM to 2 mM
compound,measurement,setting,value
CCCCNc1cc(C(=O)O)cc(S(N)(=O)=O)c1Oc1ccccc1 [bumetanide],Effect on forskolin-stimulated increase in cell Cl^−,[1]; 100 μM basolateral,abolished
same,netJv in the absence of secretagogues,rat colonic crypts; added to basolateral bath,increased the positive or absorptive ^netJv
[Ca+2] [Ca^2+],Effect on net fluid secretion induced by Guanylin and CTX,[2]; [10],reversed net fluid secretion
same,Effect on Cl^− entry via NKCCl in the presence of CTX,[1]; calcium increased from 0.1 to 2 mM,inhibited Cl^− entry
same,Increase in NHE activity,[3]; basolateral bath Ca^2+ raised from 0.1 to 2 mM,8 fold
same,Effect on cAMP-mediated reduction in fluid absorption,rat colonic crypts; extracellular Ca^2+ increased to 2 mM,significantly abrogated
same,Effect on net fluid secretion induced by Guanylin or STa,[4],reversed net fluid secretion
same,Effect on net fluid secretion induced by forskolin or cholera toxin,[4],reversed net fluid secretion
same,Effect on net fluid secretion induced by Guanylin and CTX,[5]; [10],did not
same,Effect on forskolin or cholera toxin induced cyclic AMP production,cyclic AMP,attenuates
"CC(C)Cn1c(=O)n(C)c(=O)c2[nH]cnc21 [IBMX, 3-Isobutyl-1-Methylxanthine]",Effect on attenuation of cyclic GMP production by 2.0 mM Ca^2+,cyclic GMP,reverses this effect
same,Effect on attenuation of cyclic AMP production by 2.0 mM Ca^2+,cyclic AMP; IBMX added (1 mM per method),reverses this effect
"COc1cccc(C(C)NCCCc2ccccc2Cl)c1 (stereo not drawn) [Compound A, S-stereoisomer, N-(3-[2-chlorophenyl]-propyl)-α-methyl-3-methoxybenzylamine HCl]",pEC50,[4]; compound in bath,9.21
same,pEC50,[4]; compound in lumen,9.12
C=C[C@@]1(C)CC(=O)[C@]2(O)[C@@]3(C)[C@@H](O)CCC(C)(C)[C@@H]3[C@H](O)[C@H](OC(C)=O)[C@@]2(C)O1 [forskolin],"Mean Jv, distal colonic crypts",[6],−0.33±0.01 nL/min/mm
same,"Mean Jv, proximal colonic crypts",[6],−0.32±0.02 nL/min/mm
"COc1cccc([C@@H](C)NCCCc2ccccc2Cl)c1.Cl [Compound A, N-(3-[2-chlorophenyl]-propyl)-R-α-methyl-3-methoxybenzylamine HCl]",Effect on net fluid secretion induced by Guanylin and CTX,"[2]; 100 nM, 0.1 mM calcium",effectively reversed net fluid secretion
same,Effect on rate of forskolin-stimulated Cl^− entry,[1]; 100 nM in basolateral fluid,significantly reduced
same,Increase in NHE activity,[3]; Compound A added to the 2 mM Ca^2+-containing bath,12 fold
same,Effect on cAMP-mediated reduction in fluid absorption,rat colonic crypts; added to basolateral bath in the presence of 0.5 mM calcium,significantly abrogated
same,pEC50,[4]; compound in bath,11.29
same,pEC50,[4]; compound in lumen,10.63
same,Effect on net fluid secretion in presence of forskolin and PLC inhibitor U73122,[4]; compound added to both luminal and bath,did not completely reverse net fluid secretion
same,Effect on net fluid secretion in presence of forskolin and PLC inhibitor U73122,[4]; compound added to lumen or bath,had no significant effect on reversing net fluid secretion
same,Effect on net fluid secretion induced by Guanylin and CTX,"[5]; 100 nM, 0.1 mM calcium",did not reverse net fluid secretion
same,Effect on forskolin-induced net fluid secretion in presence of TTX,[6],attenuated forskolin-induced net fluid secretion
"CCCC(=O)Nc1ncnc2c1ncn2[C@@H]1O[C@@H]2COP(=O)(O)O[C@H]2[C@H]1OC(=O)CCC [db-cyclic AMP, dibutyryl-cAMP]",Absorptive fluid movement,rat colonic crypts; in the presence of bumetanide,substantially reduced
cholera toxin,Net fluid movement (Jv) on exposure to secretagogue,[2],induced net fluid secretion
same,Net fluid movement (Jv) on exposure to secretagogue,[4],induced net fluid secretion
same,Net fluid movement (Jv) on exposure to secretagogue,[5],induced net fluid secretion
same,cAMP production on exposure to secretagogue,cyclic AMP,induce cAMP production; also recorded: induce cyclic AMP production
"COc1ccc(CNC(C)c2ccccc2)cc1-c1ccc(C(F)(F)F)cc1 (stereo not shown) [Compound B, N-((6-(methyloxy)-4′-(trifluoromethyl)-1,1′-biphenyl-3-yl)methyl)-1-phenylethanamine]",Cholera toxin-induced gastrointestinal fluid accumulation,BALB/c mice [7],statistically significant reduction
same,Mortality 24 hrs (moribund),BALB/c mice [8],2/5
same,Volume of fluid accumulating in the small intestine,BALB/c mice [8],dose-dependent reduction
"NC1=N[C@H](O)[C@H]2[C@H]3O[C@]4(O)O[C@@H]([C@@H](O)[C@@]2(N1)[C@@H]4O)[C@]3(O)CO [TTX, tetrodotoxin]",Effect on ability of calcimimetics to reverse forskolin-stimulated increase in Isc,[9],abolished
same,Effect on forskolin-induced net fluid secretion,[6],did not change the ability of forskolin to induce a net fluid secretion
Guanylin,Net fluid movement (Jv) on exposure to secretagogue,[2],induced net fluid secretion
same,Net fluid movement (Jv) on exposure to secretagogue,[4],induced net fluid secretion
same,Net fluid movement (Jv) on exposure to secretagogue,[5],induced net fluid secretion
"Cn1c(NC[C@@H](N)Cc2ccccc2)nc(-c2ccncc2)c(-c2ccc3ccccc3c2)c1=O [Compound C, 2-(((2S)-2-amino-3-phenylpropyl)amino)-3-methyl-5-(2-naphthalenyl)-6-(4-pyridinyl)-4(3H)-pyrimidinone]",Mortality,"BALB/c mice [8]; female, BALB/c",100%

# — US8486381B2, “Methods of modulating intestinal fluid balance” (Amgen Inc., priority 2005, dated 2013)
